ChEMBL document CHEMBL2073787, “Isolation of a family of organic anion transporters from human liver and kidney” (Biochem Biophys Res Commun, 2001)

Tests used:
Format in all cases: functional, cell-based
[1] = target: T1, Solute carrier family 22 member 7 (Homo sapiens, UniProt Q9Y694); assay: TP_TRANSPORTER: uptake in OAT2-expressing EcR293 cells
T1 sequence (Q9Y694 whole entry): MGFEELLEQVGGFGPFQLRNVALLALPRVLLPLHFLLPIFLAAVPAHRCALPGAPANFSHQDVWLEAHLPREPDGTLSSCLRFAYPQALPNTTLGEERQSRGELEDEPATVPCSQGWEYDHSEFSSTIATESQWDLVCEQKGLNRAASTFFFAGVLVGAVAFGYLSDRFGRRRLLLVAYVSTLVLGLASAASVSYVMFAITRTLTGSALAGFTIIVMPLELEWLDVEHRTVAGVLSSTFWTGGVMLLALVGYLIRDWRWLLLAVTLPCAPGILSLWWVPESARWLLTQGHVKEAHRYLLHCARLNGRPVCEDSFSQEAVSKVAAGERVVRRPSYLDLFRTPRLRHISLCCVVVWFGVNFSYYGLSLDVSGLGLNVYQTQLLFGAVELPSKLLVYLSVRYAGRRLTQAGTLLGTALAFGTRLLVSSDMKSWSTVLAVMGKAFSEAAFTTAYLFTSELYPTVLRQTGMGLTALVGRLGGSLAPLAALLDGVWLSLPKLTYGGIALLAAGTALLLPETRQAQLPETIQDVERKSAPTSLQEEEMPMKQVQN

[2] = target: T1, Solute carrier family 22 member 7; assay: TP_TRANSPORTER: inhibition of PAH uptake (alpha-KG: 500 uM) in OAT2-expressing EcR293 cells; details: ecr293, 500 µM
[3] = target: T1, Solute carrier family 22 member 7; assay: TP_TRANSPORTER: inhibition of PAH uptake (BSP: 100 uM) in OAT2-expressing EcR293 cells; details: ecr293, 100 µM

| SMILES | Activity [1] | Activity [2] | Activity [3] |
| --- | --- | --- | --- |
| O=C(O)CCC(=O)C(=O)O [ALPHA-KETOGLUTARIC ACID] | substrate [+] | is not an inhibitor [-] | – |
| Nc1ccc(C(=O)NCC(=O)O)cc1 [AMINOHIPPURIC ACID] | substrate [+] | – | – |
| CN(Cc1cnc2nc(N)nc(N)c2n1)c1ccc(C(=O)N[C@@H](CCC(=O)O)C(=O)O)cc1 [METHOTREXATE] | substrate [+] | – | – |
| O=C1OC(c2ccc(O)c(S(=O)(=O)[O-])c2)(c2ccc(O)c(S(=O)(=O)[O-])c2)c2c(Br)c(Br)c(Br)c(Br)c21.[Na+].[Na+] [SULFOBROMOPHTHALEIN SODIUM] | – | – | inhibitor [+] |
